Experimental data: ChEMBL document CHEMBL1201862, “PubChem BioAssay data set” (2004)
The source made the active and inactive calls.

What was measured:
Hexokinase-1 = biological target: T1, Hexokinase-1 (Homo sapiens, UniProt P19367); assay: HK1 enzyme activation by HKDC1 hits – biochemical, selectivity assay for HKDC1 activator project, dose response (AID 504762); type: functional
T1 sequence (P19367 whole entry): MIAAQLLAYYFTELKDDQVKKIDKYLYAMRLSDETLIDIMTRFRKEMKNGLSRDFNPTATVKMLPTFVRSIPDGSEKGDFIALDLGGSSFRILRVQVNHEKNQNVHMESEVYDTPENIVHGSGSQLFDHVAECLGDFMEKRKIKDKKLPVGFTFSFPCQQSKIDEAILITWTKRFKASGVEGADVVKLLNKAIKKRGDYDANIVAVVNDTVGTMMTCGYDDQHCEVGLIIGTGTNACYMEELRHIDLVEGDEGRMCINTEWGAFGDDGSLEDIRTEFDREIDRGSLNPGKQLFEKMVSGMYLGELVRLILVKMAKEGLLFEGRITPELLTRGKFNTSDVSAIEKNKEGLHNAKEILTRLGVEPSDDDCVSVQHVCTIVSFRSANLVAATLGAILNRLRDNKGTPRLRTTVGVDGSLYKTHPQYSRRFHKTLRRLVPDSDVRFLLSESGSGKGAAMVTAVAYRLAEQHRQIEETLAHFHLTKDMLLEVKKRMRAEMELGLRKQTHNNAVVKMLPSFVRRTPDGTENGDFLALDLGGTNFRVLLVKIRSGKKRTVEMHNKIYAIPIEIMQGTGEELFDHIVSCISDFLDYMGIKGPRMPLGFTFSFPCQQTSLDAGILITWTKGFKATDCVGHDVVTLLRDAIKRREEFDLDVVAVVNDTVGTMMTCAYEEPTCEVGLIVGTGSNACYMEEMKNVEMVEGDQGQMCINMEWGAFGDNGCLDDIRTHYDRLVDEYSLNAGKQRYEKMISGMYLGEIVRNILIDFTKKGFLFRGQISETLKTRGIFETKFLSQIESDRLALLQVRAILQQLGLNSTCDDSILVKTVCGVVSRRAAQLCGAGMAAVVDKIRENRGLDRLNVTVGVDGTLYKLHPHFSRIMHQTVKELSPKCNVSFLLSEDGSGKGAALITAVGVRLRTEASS

Hexokinase HKDC1 = biological target: T2, Hexokinase HKDC1 (Homo sapiens, UniProt Q2TB90); assay: activation of HKDC1 glucose phosphorylation – biochemical, W721R variant, dose response (AID 504730); type: functional
T2 sequence (Q2TB90 whole entry): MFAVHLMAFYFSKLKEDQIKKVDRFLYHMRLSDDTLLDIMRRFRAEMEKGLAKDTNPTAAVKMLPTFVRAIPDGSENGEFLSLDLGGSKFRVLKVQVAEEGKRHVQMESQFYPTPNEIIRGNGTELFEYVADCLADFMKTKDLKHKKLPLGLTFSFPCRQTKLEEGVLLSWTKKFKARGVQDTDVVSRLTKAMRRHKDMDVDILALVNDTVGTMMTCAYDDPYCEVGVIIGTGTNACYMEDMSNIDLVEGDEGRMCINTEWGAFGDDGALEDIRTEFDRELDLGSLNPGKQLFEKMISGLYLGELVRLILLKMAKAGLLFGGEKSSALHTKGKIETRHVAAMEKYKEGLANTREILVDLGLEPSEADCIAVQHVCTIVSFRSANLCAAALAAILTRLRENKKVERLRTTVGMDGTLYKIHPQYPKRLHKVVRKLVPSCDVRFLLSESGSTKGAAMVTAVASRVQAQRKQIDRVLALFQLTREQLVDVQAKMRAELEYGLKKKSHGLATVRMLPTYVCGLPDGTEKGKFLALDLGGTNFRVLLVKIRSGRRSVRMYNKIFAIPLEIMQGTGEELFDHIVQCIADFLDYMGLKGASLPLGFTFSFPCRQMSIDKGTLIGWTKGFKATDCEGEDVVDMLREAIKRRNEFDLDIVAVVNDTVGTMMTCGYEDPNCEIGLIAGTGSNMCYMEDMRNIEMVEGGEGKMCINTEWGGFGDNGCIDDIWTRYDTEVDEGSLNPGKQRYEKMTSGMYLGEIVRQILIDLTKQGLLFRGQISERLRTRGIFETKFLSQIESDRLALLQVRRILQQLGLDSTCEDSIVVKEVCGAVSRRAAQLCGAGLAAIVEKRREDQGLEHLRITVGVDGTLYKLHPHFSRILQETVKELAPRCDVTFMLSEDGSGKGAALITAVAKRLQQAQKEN

[1] = biological target: T3, Ubiquitin-conjugating enzyme E2 N (Homo sapiens, UniProt P61088); type: functional
T3 sequence (P61088 whole entry): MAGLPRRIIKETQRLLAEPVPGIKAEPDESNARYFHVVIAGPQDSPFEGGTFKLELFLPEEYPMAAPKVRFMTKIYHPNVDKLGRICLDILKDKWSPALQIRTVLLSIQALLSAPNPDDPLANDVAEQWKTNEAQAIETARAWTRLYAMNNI

Bcl-2-related protein A1 = Bcl-2-related protein A1 (Mus musculus, UniProt Q07440); type: functional;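 note: confirmatory dose–response counterscreen on Bfl-1, used to check hits from a UBC13 polyubiquitin inhibitor campaign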
Sequence of Bcl-2-related protein A1 (Q07440 whole entry): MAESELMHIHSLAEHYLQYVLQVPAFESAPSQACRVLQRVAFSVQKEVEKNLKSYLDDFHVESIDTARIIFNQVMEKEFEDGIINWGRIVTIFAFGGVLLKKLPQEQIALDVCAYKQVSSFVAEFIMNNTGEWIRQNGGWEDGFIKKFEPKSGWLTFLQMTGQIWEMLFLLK

[2] = biological target: T3, Ubiquitin-conjugating enzyme E2 N; type: functional; remark: listed apart in the source
Cannabinoid receptor 1 [3] = biological target: T4, Cannabinoid receptor 1 (Homo sapiens, UniProt P21554); assay: SAR analysis of antagonists of the Cannabinoid Receptor 1 using an Image-Based Assay - Set 2. [Related pubchem assays (depositor defined):AID2013, AID2026]; type: functional
T4 sequence (P21554 whole entry): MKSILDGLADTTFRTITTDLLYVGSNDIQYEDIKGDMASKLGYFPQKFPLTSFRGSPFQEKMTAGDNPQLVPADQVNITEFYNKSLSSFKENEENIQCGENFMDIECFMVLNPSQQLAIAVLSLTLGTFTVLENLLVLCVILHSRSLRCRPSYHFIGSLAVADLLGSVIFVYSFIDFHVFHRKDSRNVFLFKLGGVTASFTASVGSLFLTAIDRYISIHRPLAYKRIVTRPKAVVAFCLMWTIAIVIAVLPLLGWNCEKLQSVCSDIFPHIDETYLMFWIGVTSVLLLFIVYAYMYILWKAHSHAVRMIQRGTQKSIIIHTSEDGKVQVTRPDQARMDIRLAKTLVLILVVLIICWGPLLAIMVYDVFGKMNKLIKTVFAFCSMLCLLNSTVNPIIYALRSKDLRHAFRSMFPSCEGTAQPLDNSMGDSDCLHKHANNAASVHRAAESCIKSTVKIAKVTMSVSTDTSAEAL

[4] = biological target: T5, Small ubiquitin-related modifier 1 (Homo sapiens, UniProt P63165); assay: SUMO1 protein interaction blockers, potency – biochemical, fluorescence polarization, uHTS hits, dose response (AID 624382); type: functional; conditions: read-out: IC50_Mean
T5 sequence (P63165 whole entry): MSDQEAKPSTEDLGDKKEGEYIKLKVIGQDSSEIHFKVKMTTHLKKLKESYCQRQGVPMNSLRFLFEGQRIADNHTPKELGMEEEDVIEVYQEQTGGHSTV

Cannabinoid receptor 1 [5] = biological target: T4, Cannabinoid receptor 1; assay: SAR analysis of agonists of the Cannabinoid Receptor 1 using an Image-Based Assay - Set 2. [Related pubchem assays (depositor defined):AID2013, AID2026]; type: functional
[6] = biological target: T6, G-protein coupled receptor 55 (Homo sapiens, UniProt Q9Y2T6); assay: blockade of LPI-induced GPR55 arrestin translocation – imaging, U2OS, beta-arrestin-GFP, LPI agonist, set 2, SAR follow-up (AID 2820); type: functional
T6 sequence (Q9Y2T6 whole entry): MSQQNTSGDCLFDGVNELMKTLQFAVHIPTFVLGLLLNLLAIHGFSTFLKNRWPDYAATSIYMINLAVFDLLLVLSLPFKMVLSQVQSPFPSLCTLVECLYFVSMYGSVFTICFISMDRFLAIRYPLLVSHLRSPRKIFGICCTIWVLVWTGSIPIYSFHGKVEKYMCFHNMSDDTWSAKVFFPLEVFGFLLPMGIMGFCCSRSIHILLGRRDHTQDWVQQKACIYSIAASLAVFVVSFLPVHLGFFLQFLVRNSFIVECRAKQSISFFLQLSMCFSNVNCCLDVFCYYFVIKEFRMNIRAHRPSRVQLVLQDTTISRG

Cannabinoid receptor 2 [7] = biological target: T7, Cannabinoid receptor 2 (Homo sapiens, UniProt P34972); assay: SAR analysis of agonists of the Cannabinoid Receptor 2 using an Image-Based Assay. [Related pubchem assays (depositor defined):AID2013, AID2026]; type: functional
T7 sequence (P34972 whole entry): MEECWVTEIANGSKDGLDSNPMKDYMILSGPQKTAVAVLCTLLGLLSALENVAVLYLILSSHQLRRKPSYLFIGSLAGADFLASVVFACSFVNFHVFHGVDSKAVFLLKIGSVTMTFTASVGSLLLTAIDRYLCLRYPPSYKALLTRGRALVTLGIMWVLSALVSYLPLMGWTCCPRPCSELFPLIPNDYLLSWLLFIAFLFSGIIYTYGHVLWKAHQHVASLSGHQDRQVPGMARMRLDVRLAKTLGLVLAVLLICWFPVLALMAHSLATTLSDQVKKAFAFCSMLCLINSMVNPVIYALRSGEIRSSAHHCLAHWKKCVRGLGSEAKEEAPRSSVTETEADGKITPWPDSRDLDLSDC

Streptococcus = assay: GAS UMAA2166 growth inhibition – luminescence, BacTiterGlo, counter-screen for streptokinase expression inhibitor project, dose response (AID 1915); type: functional, organism-based; conditions: read-out: EC50;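 note: potency for reduction of bacterial viability or growth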
[8] = biological target: T5, Small ubiquitin-related modifier 1; assay: SUMO1 protein-protein binding blockers, potency – biochemical, FRET, dose response (AID 624383); type: functional; conditions: read-out: IC50_Mean
[9] = biological target: T8, G-protein coupled receptor 35 (Homo sapiens, UniProt Q9HC97); assay: SAR analysis of Agonists of the GPR35 Receptor using an Image-Based Assay - Set 2. [Related pubchem assays (depositor defined):AID2013, AID2026]; type: functional
T8 sequence (Q9HC97 whole entry): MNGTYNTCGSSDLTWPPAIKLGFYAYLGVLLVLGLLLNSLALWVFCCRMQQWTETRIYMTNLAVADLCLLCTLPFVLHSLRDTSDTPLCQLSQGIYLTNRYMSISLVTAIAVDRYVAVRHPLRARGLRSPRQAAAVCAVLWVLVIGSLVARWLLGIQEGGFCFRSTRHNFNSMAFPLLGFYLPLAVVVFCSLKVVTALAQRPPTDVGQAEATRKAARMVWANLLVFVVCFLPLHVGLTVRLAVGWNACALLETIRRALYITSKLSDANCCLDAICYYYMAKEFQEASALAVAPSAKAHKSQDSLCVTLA

Trypsin = Trypsin (Sus scrofa, UniProt P00761); assay: trypsin protease activity blockade – biochemical, quenched peptide fluorescence, cherry-pick, selectivity assay for Rce1 protease inhibitor project, dose response (AID 488789)
Sequence of Trypsin (P00761 whole entry): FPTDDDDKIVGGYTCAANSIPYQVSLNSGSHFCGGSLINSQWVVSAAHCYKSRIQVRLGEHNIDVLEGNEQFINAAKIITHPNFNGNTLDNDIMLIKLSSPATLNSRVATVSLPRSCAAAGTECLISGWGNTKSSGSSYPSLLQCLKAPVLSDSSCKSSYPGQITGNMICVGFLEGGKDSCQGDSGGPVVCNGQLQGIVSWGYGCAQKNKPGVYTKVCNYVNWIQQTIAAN

Streptokinase A = biological target: T9, Streptokinase A (Streptococcus pyogenes serotype M1, UniProt P10520); assay: viability-normalized secreted streptokinase activity reduction – plasminogen activation absorbance, OD405, dose response (AID 1914); type: functional, Streptococcus pyogenes M1 GAS;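 note: secreted streptokinase activity via plasminogen activation per viability signal from cell pellet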
T9 sequence (P10520 whole entry): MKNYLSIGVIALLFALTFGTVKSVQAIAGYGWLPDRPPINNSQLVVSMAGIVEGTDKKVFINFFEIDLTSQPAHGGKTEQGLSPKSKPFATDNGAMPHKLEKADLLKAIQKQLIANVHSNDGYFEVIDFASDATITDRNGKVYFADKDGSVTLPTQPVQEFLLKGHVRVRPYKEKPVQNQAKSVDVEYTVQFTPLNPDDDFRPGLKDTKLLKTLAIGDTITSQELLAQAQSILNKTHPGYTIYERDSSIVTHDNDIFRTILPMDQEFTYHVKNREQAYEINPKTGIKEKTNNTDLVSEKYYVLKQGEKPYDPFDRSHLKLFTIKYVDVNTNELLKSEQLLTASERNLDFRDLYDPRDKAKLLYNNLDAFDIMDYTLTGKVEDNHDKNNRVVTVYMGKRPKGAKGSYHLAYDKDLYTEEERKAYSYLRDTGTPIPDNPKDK

Cannabinoid receptor 2 [10] = biological target: T7, Cannabinoid receptor 2; assay: SAR analysis of antagonists of the Cannabinoid Receptor 2 using an Image-Based Assay. [Related pubchem assays (depositor defined):AID2013, AID2026]; type: functional
CAAX prenyl protease 2 = biological target: T10, CAAX prenyl protease 2 (Saccharomyces cerevisiae S288c, UniProt Q03530); type: biochemical
T10 sequence (Q03530 whole entry): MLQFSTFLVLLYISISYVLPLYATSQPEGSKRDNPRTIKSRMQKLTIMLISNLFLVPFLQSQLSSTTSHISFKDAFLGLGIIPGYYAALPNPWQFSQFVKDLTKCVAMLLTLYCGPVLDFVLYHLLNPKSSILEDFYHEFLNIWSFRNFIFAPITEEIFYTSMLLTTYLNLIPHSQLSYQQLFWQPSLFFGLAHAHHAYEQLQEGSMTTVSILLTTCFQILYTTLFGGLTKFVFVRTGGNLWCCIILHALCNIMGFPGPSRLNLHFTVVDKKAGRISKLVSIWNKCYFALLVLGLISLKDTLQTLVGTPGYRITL

[11] = biological target: T6, G-protein coupled receptor 55; assay: inhibition of LPI-stimulated GPR55 beta-arrestin translocation – imaging, U2OS, beta-arrestin-GFP, LPI agonist, primary screen (AID 2013); type: functional;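 note: antagonist potency measured as reduced agonist-driven arrestin aggregation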
Fatty acid synthase [12] = biological target: T11, Fatty acid synthase (Homo sapiens, UniProt P49327); assay: inhibition of human FAS-TE enzyme activity – biochemical, endpoint fluorescence intensity, uHTS hits, dose response (AID 624327); type: functional;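 note: fluorescence from hydrolysis of an O-methyl fluorescein acyl ester substrate by the enzyme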
T11 sequence (P49327 whole entry): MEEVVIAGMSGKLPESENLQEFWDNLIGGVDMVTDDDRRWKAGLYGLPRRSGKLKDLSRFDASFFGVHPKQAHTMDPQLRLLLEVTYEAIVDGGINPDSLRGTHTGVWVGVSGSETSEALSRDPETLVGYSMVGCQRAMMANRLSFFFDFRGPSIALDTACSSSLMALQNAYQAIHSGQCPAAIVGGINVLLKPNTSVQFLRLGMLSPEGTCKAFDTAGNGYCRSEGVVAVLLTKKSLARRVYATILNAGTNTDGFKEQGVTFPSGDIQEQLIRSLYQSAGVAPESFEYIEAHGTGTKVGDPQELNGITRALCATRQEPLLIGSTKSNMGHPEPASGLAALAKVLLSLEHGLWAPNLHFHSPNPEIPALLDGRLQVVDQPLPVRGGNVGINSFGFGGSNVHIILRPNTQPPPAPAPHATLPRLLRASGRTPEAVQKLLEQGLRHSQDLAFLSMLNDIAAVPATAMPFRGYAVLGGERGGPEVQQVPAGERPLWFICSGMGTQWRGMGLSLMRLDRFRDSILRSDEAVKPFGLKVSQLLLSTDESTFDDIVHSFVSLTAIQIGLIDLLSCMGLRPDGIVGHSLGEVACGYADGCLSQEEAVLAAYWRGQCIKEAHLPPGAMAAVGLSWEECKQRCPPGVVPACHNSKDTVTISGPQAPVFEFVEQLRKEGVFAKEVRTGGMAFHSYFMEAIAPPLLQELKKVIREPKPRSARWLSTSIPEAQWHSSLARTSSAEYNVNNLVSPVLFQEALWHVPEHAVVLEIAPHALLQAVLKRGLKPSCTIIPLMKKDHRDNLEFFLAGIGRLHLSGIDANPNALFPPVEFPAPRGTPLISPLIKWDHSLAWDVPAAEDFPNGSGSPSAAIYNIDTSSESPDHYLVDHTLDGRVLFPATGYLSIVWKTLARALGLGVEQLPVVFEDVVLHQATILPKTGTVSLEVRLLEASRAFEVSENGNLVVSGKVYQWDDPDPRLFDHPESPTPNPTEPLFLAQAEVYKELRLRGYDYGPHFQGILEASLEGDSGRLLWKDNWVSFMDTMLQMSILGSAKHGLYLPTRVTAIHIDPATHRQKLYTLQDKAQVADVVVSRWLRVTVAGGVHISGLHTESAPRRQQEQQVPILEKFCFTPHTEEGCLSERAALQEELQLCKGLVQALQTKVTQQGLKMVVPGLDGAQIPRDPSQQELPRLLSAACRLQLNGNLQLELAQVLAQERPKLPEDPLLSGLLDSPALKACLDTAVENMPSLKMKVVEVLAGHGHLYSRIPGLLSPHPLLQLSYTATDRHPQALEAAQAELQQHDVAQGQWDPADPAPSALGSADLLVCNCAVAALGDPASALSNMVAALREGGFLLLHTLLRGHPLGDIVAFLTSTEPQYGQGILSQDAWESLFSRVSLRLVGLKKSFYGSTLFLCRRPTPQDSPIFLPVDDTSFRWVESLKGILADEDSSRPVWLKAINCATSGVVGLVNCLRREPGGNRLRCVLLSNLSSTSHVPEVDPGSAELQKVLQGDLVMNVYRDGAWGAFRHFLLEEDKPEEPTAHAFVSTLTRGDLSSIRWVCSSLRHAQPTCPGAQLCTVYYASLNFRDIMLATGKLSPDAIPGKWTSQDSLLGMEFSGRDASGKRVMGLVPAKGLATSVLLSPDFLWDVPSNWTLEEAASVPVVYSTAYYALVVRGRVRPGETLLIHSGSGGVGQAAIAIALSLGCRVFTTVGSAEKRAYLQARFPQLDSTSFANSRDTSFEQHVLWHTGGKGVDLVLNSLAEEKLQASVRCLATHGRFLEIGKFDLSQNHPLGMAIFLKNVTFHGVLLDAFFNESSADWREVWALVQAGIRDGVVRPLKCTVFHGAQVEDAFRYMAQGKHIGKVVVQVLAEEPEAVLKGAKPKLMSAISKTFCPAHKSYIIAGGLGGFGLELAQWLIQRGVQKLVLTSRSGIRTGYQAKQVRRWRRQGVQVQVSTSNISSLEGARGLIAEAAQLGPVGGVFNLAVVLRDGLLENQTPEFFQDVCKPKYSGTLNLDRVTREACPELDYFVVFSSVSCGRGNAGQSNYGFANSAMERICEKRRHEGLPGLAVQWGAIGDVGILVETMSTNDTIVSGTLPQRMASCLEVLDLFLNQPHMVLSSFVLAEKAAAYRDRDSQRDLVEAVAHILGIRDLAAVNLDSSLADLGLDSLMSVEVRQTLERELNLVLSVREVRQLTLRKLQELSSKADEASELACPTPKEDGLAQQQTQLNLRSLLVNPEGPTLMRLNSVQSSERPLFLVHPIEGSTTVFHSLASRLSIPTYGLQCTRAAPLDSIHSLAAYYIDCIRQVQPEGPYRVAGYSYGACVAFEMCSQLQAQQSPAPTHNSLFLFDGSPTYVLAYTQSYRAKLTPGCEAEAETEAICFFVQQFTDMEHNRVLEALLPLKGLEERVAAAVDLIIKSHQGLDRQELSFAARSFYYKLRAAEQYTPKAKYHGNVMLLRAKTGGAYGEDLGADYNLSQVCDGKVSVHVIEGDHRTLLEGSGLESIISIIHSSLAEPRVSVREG

Fatty acid synthase [13] = biological target: T11, Fatty acid synthase; assay: inhibition of human FAS-TE enzyme activity – biochemical, kinetic fluorescence intensity, dose response (AID 624326); type: functional;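 note: rate of fluorescence rise from hydrolysis of a fluorogenic O-methyl fluorescein ester substrate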
[14] = biological target: T8, G-protein coupled receptor 35; assay: SAR analysis of Antagonists of the GPR35 Receptor using an Image-Based Assay - Set 3. [Related pubchem assays (depositor defined):AID2013, AID2026]; type: functional
Cannabinoid receptor 2 [15] = biological target: T7, Cannabinoid receptor 2; assay: SAR analysis of antagonists of the Cannabinoid Receptor 2 using an Image-Based Assay - Set 3. [Related pubchem assays (depositor defined):AID2013, AID2026]; type: functional
Cannabinoid receptor 2 [16] = biological target: T7, Cannabinoid receptor 2; assay: SAR analysis of agonists of the Cannabinoid Receptor 2 using an Image-Based Assay - Set 3. [Related pubchem assays (depositor defined):AID2013, AID2026]; type: functional
[17] = biological target: T8, G-protein coupled receptor 35; assay: SAR analysis of Antagonists of the GPR35 Receptor using an Image-Based Assay - Set 6. [Related pubchem assays (depositor defined):AID2013, AID2026]; type: functional
[18] = biological target: T8, G-protein coupled receptor 35; assay: SAR analysis of Agonists of the GPR35 Receptor using an Image-Based Assay - Set 4. [Related pubchem assays (depositor defined):AID2013, AID2026]; type: functional
Cannabinoid receptor 1 [19] = biological target: T4, Cannabinoid receptor 1; assay: SAR analysis of agonists of the Cannabinoid Receptor 1 using an Image-Based Assay - Set 4. [Related pubchem assays (depositor defined):AID2013, AID2026]; type: functional
Cannabinoid receptor 1 [20] = biological target: T4, Cannabinoid receptor 1; assay: SAR analysis of antagonists of the Cannabinoid Receptor 1 using an Image-Based Assay - Set 4. [Related pubchem assays (depositor defined):AID2013, AID2026]; type: functional
[21] = biological target: T6, G-protein coupled receptor 55; assay: SAR Analysis of Selective Antagonists of GPR55 using an Image-Based Assay - Set 4. [Related pubchem assays (depositor defined):AID2013, AID2026]; type: functional

In the case of O=S(=O)(NC1c2cccc3cccc(c23)C1N1CCN(CCO)CC1)c1ccccc1 (stereo not drawn), the EC50 (Hexokinase-1) is reported as 24 µM (inactive) and the EC50 (Hexokinase HKDC1) is reported as 18.1 µM (active).

CCCCN(C(=O)c1ccco1)c1nnc(-c2cc(OC)c(OC)c(OC)c2)s1 was tested, and the IC50 [1] was 10.4 µM (active), the IC50 (Bcl-2-related protein A1) was > 20 µM (inactive) and the IC50 [2] was 9.79 µM (active).

In the case of CC(C)(C)OC(=O)N1CCC(c2cc(O)n3ncc(C(=O)Nc4ccc(F)c(Cl)c4)c3n2)CC1, the IC50 (Cannabinoid receptor 1 [3]) is reported as 10.5 µM (inactive), the IC50 [4] is reported as > 66.6 µM (inactive) and the EC50 (Cannabinoid receptor 1 [5]) is reported as > 32 µM (inactive). The IC50 [6] was 0.948 µM (active), the EC50 (Cannabinoid receptor 2 [7]) was > 32 µM (inactive) and the EC50 (Streptococcus) was > 150 µM (not active). The IC50 [8] was 9.68 µM (active), the EC50 [9] was 5.23 µM (active) and the AC50 (Trypsin) was 77.2 µM (active). For the same molecule, the EC50 (Streptokinase A) was > 150 µM (not active), the IC50 (Cannabinoid receptor 2 [10]) was > 32 µM (inactive) and the AC50 (CAAX prenyl protease 2) was 17.8 µM (active). The IC50 [11] was 1.41 µM (active), the IC50 (Fatty acid synthase [12]) was 8.24 µM (active) and the IC50 (Fatty acid synthase [13]) was 5.64 µM (active). For the same molecule, the IC50 [14] was 25.4 µM (inactive).

Cc1nc(N2CCN(C(=O)C3CCCO3)CC2)c2c3c(sc2n1)CCCC3 (stereo not drawn) was tested, and the IC50 (Cannabinoid receptor 2 [15]) was > 32 µM (inactive), the EC50 (Cannabinoid receptor 2 [16]) was > 32 µM (inactive) and the IC50 [17] was > 32 µM (inactive). For the same molecule, the EC50 [18] was > 32 µM (inactive), the EC50 (Cannabinoid receptor 1 [19]) was > 32 µM (inactive) and the IC50 (Cannabinoid receptor 1 [20]) was > 32 µM (inactive). The IC50 [21] was > 32 µM (inactive).
